Data on one compound can be found in patent US8834841B2, “Imaging agents” (priority 2005, dated 2014).

The structures appear in SMILES notation.

For one assay, the system named is MB468 breast carcinoma. As to the kind of experiment: in vitro amino acid uptake, MDA MB 468 cells. Format: cell-based, human. The text has this: (§1) The inventive compounds have been evaluated in vitro for tumor binding specificity (i.e. uptake cells) using a variety of tumor cell lines available in the art, along with reference compounds such as Me-AIB and BCH. Detailed description of these assays can be found in Martarello et al. (2002) Journal of Medicinal Chemistry, 45:2250-2259 and McConathy et al. (2003) Nuclear Medicine and Biology, 30:477-490. These, so called “amino acid uptake studies” are typically carried out with radiolabeled compounds in at least five phenotypically different human tumor cell lines (e.g. A549 lung carcinoma, MB468 breast carcinoma, DU145 prostate carcinoma, SKOV3 ovarian carcinoma, and U87 glial blastoma). These tumor cell lines can be grown either in vitro or in vivo with severe combined immunodeficiency (SCID) mice as a host. The fore-mentioned tumor cell lines are available at the Winship Cancer Institute of Emory University.
(§2) For the in vitro amino acid uptake studies, all cells can be grown to monolayer confluency in T-175 culture flasks [Corning, Corning, N.Y.] (approx. 1×10^8 cells/flask) in Dulbecco's Modified Eagle's Medium (DMEM) [Sigma, St. Louis, Mo.] in a humidified incubator (37° C., 5% CO2/95% air). Media are supplemented with 10% fetal calf serum [Hyclone, Logan, Utah], and antibiotics (10,000 U/ml penicillin and 10 mg/ml streptomycin) (Sigma, St. Louis, Mo.). For tissue culture passage, monolayer cells are detached by gentle trypsinization, resuspended in complete media, and split 1:10 into new T-flasks. […]
(§3) In the in vitro studies the uptake rate of each amino acid compound is measured in each tumor line, as well as the dominant transport mechanisms of each tumor cell line. After trypsinization, cells are resuspended in serum-free media, then counted on a hemocytometer, with viability assessed through Trypan blue staining. […] The vials are placed in a Cobra-II gamma counter (Packard, Meriden, Conn.), with the activity per cell number determined. […] Saline washes are performed as described above, and the filtered cells radioactivity determined on the gamma counter. […]

Another assay concerns A549 lung carcinoma. Put plainly: in vitro amino acid uptake, A549 cells. Format: cell-based, human.
Source text: as §1, §2, §3

Turning to `NC1(C(=O)O)CCC1[18F]` [Anti-R,S 2-[^18F]FACBC, (R,S) anti-1-amino-2-[^18F]fluorocyclobutyl-1-carboxylic acid], the “% Dose Uptake/0.5e6 Cells” value in the assay with MB468 breast carcinoma (MDA MB 468, No inhibitor) was 7.37 +/− 0.21 % Dose Uptake/0.5e6 Cells; with MB468 breast carcinoma (MDA MB 468, inhibitor BCH (10 mM)), 1.67 +/− 0.36 % Dose Uptake/0.5e6 Cells; with MB468 breast carcinoma (MDA MB 468, inhibitor MeAlB (10 mM)) it was 3.02 +/− 0.55 % Dose Uptake/0.5e6 Cells; in the assay with A549 lung carcinoma (A549, No inhibitor), 8.89 +/− 0.36 % Dose Uptake/0.5e6 Cells; in the assay on A549 lung carcinoma (A549, inhibitor BCH (10 mM)) it was 3.99 +/− 0.39 % Dose Uptake/0.5e6 Cells; with A549 lung carcinoma (A549, inhibitor MeAlB (10 mM)), 6.93 +/− 0.20 % Dose Uptake/0.5e6 Cells.
